This assay concerns the target NS3 (Hepatitis C virus, UniProt A3EZJ3). Nature of the assay: Binding affinity to HCV NS3 protease. Further details: species or system Hepacivirus hominis.

Experimental findings from ChEMBL document CHEMBL1146185, “P2-P4 macrocyclic inhibitors of hepatitis C virus NS3-4A serine protease” (Bioorg Med Chem Lett, 2006) are described below.

Chain of NS3 (A3EZJ3 whole entry): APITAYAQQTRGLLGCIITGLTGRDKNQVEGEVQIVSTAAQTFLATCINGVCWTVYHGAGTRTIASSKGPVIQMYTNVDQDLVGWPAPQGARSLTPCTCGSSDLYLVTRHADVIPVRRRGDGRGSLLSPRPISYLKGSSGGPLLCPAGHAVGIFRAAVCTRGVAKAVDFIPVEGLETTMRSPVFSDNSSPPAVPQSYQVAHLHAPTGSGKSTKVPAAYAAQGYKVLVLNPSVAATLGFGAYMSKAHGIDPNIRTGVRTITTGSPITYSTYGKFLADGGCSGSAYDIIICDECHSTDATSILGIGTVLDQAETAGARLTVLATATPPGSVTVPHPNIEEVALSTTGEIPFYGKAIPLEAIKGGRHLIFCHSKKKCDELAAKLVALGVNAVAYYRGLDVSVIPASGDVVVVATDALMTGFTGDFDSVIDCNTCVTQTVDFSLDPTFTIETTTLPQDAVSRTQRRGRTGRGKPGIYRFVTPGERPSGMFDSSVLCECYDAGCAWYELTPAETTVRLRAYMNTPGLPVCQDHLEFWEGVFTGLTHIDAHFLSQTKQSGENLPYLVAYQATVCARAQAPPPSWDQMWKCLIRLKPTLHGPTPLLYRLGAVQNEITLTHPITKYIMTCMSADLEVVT

Consider `CCCC(NC(=O)[C@@H]1C[C@@H]2CN1C(=O)[C@H](C(C)(C)C)NC(=O)c1cccc(c1)OCCCCO2)C(=O)C(=O)NCC(=O)N[C@H](C(=O)N(C)C)c1ccccc1` (some centres not stated), for which the inhibition constant (Ki) – broadly, a dissociation constant, usually derived from enzyme kinetics or from competition with a known ligand – was 210 nM. That is a sub-micromolar value.

Molecule `CCCC(NC(=O)[C@@H]1C[C@@H]2CN1C(=O)[C@H](C1CCCCC1)NC(=O)N(C)Cc1cccc(c1)OCCCO2)C(=O)C(=O)NCC(=O)N[C@H](C(=O)N(C)C)c1ccccc1` (some centres not stated) had an inhibitory constant (Ki) of 26 nM. Compared with the last molecule, the Ki is about 8.1-fold lower.

With `CCCC(NC(=O)[C@@H]1C[C@@H]2CN1C(=O)[C@H](C1CCCC(C(=O)O)C1)NC(=O)Cc1cccc(c1)OCCCO2)C(=O)C(=O)NCC(=O)N[C@H](C(=O)N(C)C)c1ccccc1` (some centres not stated), the Ki turned out to be 6 nM.

`CCCC(NC(=O)[C@@H]1C[C@@H]2CN1C(=O)[C@H](C(C)(C)C)NC(=O)Oc1cccc(c1)OCCCO2)C(=O)C(=O)NCC(=O)N[C@H](C(=O)N(C)C)c1ccccc1` (some centres not stated) yielded an inhibition constant Ki of 200 nM. This Ki lies about 33-fold higher than the previous one.

Take `CCCC(NC(=O)[C@@H]1C[C@@H]2CN1C(=O)[C@H](C1CCCCC1)NC(=O)N(C)c1cccc(c1)OCCCO2)C(=O)C(=O)NCC(=O)N[C@H](C(=O)N(C)C)c1ccccc1` (some centres not stated): the Ki was 90 nM.

For `CCCC(NC(=O)[C@@H]1C[C@@H]2CN1C(=O)[C@H](C1CCCCC1)NC(=O)Cc1ccc(C)c(c1)OCCCO2)C(=O)C(=O)NCC(=O)N[C@H](C(=O)N(C)C)c1ccccc1` (some centres not stated), the inhibition constant (Ki) was 12 nM. Against the preceding molecule, the Ki is about 7.5-fold lower.

In turn, `CCCC(NC(=O)[C@@H]1C[C@@H]2CN1C(=O)[C@H](C1CCCCC1)NC(=O)Cc1cccc(c1)OCCCO2)C(=O)C(=O)NCC(=O)N[C@H](C(=O)N(C)C)c1ccccc1` (some centres not stated) displayed an inhibitory constant (Ki) of 8 nM.

With `CCCC(NC(=O)[C@@H]1C[C@@H]2CN1C(=O)[C@H](C1CCCCC1)NC(=O)Cc1cc(OC)cc(c1)OCCCO2)C(=O)C(=O)NCC(=O)N[C@H](C(=O)N(C)C)c1ccccc1` (some centres not stated), the affinity corresponds to a Ki of 32 nM.

Regarding `CCCC(NC(=O)[C@@H]1C[C@@H]2CN1C(=O)[C@H]([C@H]1CC[C@H](C(=O)O)CC1)NC(=O)Cc1cccc(c1)OCCCO2)C(=O)C(=O)NCC(=O)N[C@H](C(=O)N(C)C)c1ccccc1` (some centres not stated), the affinity corresponds to a Ki of 19 nM.

`CCCC(NC(=O)[C@@H]1C[C@@H]2CN1C(=O)[C@H](C1CCCCC1)NC(=O)Nc1cccc(c1)OCCCO2)C(=O)C(=O)NCC(=O)N[C@H](C(=O)N(C)C)c1ccccc1` (some centres not stated) displayed an inhibition constant (Ki) of 1600 nM.

As for `CCCC(NC(=O)[C@@H]1C[C@@H]2CN1C(=O)[C@H](C1CCCCC1)NC(=O)Cc1cc(C)cc(c1)OCCCO2)C(=O)C(=O)NCC(=O)N[C@H](C(=O)N(C)C)c1ccccc1` (some centres not stated), the affinity corresponds to a Ki of 30 nM.

The molecule `CCCC(NC(=O)[C@@H]1C[C@@H]2CN1C(=O)[C@H]([C@H]1CC[C@@H](C(=O)O)CC1)NC(=O)Cc1cccc(c1)OCCCO2)C(=O)C(=O)NCC(=O)N[C@H](C(=O)N(C)C)c1ccccc1` (some centres not stated) gave a Ki of 30 nM.
